Assay results: PMC11862924, “Phenylpyrazoles as Inhibitors of the m^6A RNA-Binding Protein YTHDF2” (JACS Au, 2025)
“Also recorded” adds a separate entry of the source. One block for each molecule: values may come before it.

Tests used:
[1] = test system: METTL3; design: method as in PMID 33902106; conditions: cited from earlier work
[2] = test system: JAR; assay: CCK-8 proliferation assay, JAR; assay type: cell-based; conditions: Homo sapiens; CCK-8 kit assay, triplicates, 72 h; read-out: Anti-proliferation activity against cancer cells (IC50), JAR
Description: (§1) The JAR, K562, HCT116, and MOLM13 cells were seeded in 96-well plates (3000 cells/well). After being cultured overnight, compounds were added together with the DMSO treatment (0.1%) as a control. After 72 h, CCK-8 solution (Vazyme, A311) was added, and the cells were incubated at 37 °C for 4 h. The absorbance was measured at 450 nm using a plate reader (TECAN Spark).

[3] = MTT cytotoxicity assay, HCT116; assay type: cell-based; conditions: human, HCT116 cells, triplicates, read-out: Cytotoxicity against cancer cells (IC50), HCT116
Description: (§2) JAR, K562, and HCT116 cells were seeded in 96-well plates (3500 cells/well) and incubated for 8 h. The medium with different concentrations of compounds (100, 33.3, 11.1, 3.7, 1.2, and 0.4 μM) was added to the 96-well plates. Data were normalized to the medium with 0.1% DMSO. After incubation for 72 h, MTT solution (5 mg/mL, 20 μL) was added per well in a dark environment and incubated for 4 h. After the medium was discarded, DMSO (150 μL) was added per well, and the absorbance was measured at 492 nm by a plate reader (TECAN Spark).

[4] = target: T1, YTHDF2 YTH domain (Homo sapiens, UniProt Q9Y5A9); assay: AlphaScreen assay; conditions: for inhibition at 100 μM in AlphaScreen: 100 μM compound; for inhibitory IC50 in AlphaScreen (in words): Figures S3 and S4
T1 sequence (Q9Y5A9 383-553): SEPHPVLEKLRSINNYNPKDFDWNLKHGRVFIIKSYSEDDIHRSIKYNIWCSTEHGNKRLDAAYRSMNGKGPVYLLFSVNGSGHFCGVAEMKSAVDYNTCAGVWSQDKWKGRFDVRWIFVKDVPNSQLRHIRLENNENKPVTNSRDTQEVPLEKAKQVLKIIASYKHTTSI
Description: Initially, the YTHDF2 YTH domain at different concentrations (0–2500 nM) was incubated with varied concentrations of RNA probes (5’-Bi-CGAm6ACUGUC–3′, IDT company) (5, 25, 50, and 100 nM) in 25 mM Hepes (pH 7.5), 100 mM NaCl, and 0.1% BSA to probe the optimal ratio between protein and RNA before the detection signal reached saturation. The AlphaScreen Histidine Detection Kit (Nickel Chelate) (PerkinElmer) 6760619 M and white 384-well Optiplates (PerkinElmer) were used. Anti-His receptor beads (PerkinElmer) (final concentration: 20 μg/mL) and streptavidin donor beads (final concentration: 20 μg/mL) were first added. The reaction mixture was then incubated at room temperature in a dark environment for 1 h to reach equilibrium. The optical signal was detected using a Tecan plate reader.
The inhibitory activities of the phenylpyrazoles (at 100 µM) against YTHDF2 binders
in the amplified luminescent proximity homogeneous assay (AlphaScreen).
phenylpyrazoles featuring a 2 -hydroxybenzoyl moiety R1 (blue) and a 4 -carboxyphenyl moiety
represent average values ± s.d.

[5] = MTT cytotoxicity assay, K562; assay type: cell-based; conditions: human, K562 cells, triplicates, read-out: Cytotoxicity against cancer cells (IC50), K562
Description: as §2

[6] = MTT cytotoxicity assay, JAR; assay type: cell-based; conditions: human, JAR cells, triplicates, read-out: Cytotoxicity against cancer cells (IC50), JAR
Description: as §2

[7] = test system: HCT116; assay: CCK-8 proliferation assay, HCT116; assay type: cell-based; conditions: Homo sapiens, HCT-116; CCK-8 kit assay, triplicates, 72 h; read-out: Anti-proliferation activity against cancer cells (IC50), HCT116
Description: as §1

[8] = target: T2, YTHDF2 (Homo sapiens, UniProt Q9Y5A9); assay: Electrophoretic mobility shift assay (EMSA); assay type: binding; conditions: for inhibition of the YTHDF2–m6A RNA interaction in EMSA at 100 μM (in words): 100 μM compound, 250 nM YTHDF2, FAM-labeled m6A RNA; for concentration-dependent inhibition of YTHDF2–m6A RNA complex formation in EMSA (in words): 3.1–100 μM compound, 250 nM YTHDF2, 20 nM FAM-labelled m6A RNA
T2 construct: A YTHDF2 YTH domain construct (residues 383–553) was subcloned to a pOPIN plasmid; made in house; host or cells: Escherichia coli BL21(DE3)
T2 sequence (Q9Y5A9 383-553): T1 sequence (Q9Y5A9 383-553)
Description: Compounds with different concentrations (3.1–100 μM) were incubated with 250 nM YTH-domain and 20 nM FAM-17mer-RNA in a buffer containing 20 mM HEPES, pH 8.2, 50 mM NaCl, 0.05% Triton X-100, and 5% v/v glycerol for 20 min at 4 °C. […] Gel imaging was performed in ChemiDoc MP (Bio-Rad), and Cy2/Alexa488 fluorescence was detected with a 1-min exposure time. Quantification of the gel image was performed by ImageJ.

[9] = target: T3, YTHDF2 (residues 383–553) (Homo sapiens, UniProt Q9Y5A9); assay: Fluorescence polarization (FP) assay, YTHDF2–m6A RNA interaction; assay type: binding; conditions: 100 μM compound; YTHDF2 (residues 383–553, 20 nM), FAM-labeled m6A RNA probe 5 nM; average ± SD
T3 construct: A YTHDF2 YTH domain construct (residues 383–553) was subcloned to a pOPIN plasmid; made in house; host or cells: Escherichia coli BL21(DE3)
T3 sequence (Q9Y5A9 383-553): T1 sequence (Q9Y5A9 383-553)
Description: The FP assay was performed in 384-well black plates (Corning no. 4514) with a total reaction volume of 15 μL. The final concentrations of protein (YTHDF2) and RNA were […], respectively, in a buffer containing 20 mM HEPES/KOH pH 7.5, 50 mM NaCl, 0.005% Tween 20, and 1 mM GSH (DTT). Compounds were incubated with protein, added FAM-m^6A RNA probe ([…](m6)ACUGUG) (purchased from IDT), and incubated at 4 °C for 30 min. The fluorescence polarization was measured using a plate reader (TECAN Spark) under an excitation wavelength of 485 nm and an emission wavelength of 535 nm with a bandwidth of 20 nm. […] The data were determined using GraphPad Prism 9.

[10] = target: T2, YTHDF2; assay: nanoDSF thermal shift assay; assay type: binding; conditions: for ΔTm at 5 µM: 5 μM compound; for ΔTm at 10 µM: 10 μM compound; for ΔTm at 25 µM: 25 μM compound
Description: NanoDSF was measured on a NanoTemper instrument (Prometheus NT.48). YTHDF2 protein was used at a concentration of 5 μM and incubated with 50, 25, 10, and 5 μM compound in buffer (100 mM KPi, pH 7.0, 250 mM NaCl, 10% Glycerol) for 50 min, in which 0.1% DMSO was used as the reference. The heat rate was set to 1 °C per minute, measured in a range between 20 and 90 °C.

[11] = test system: K562; assay: CCK-8 proliferation assay, K562; assay type: cell-based; conditions: Homo sapiens, CCK-8 kit assay, triplicates, 72 h, read-out: Anti-proliferation activity against cancer cells (IC50), K562
Description: as §1

Molecule: STM2457
inhibitory activity against METTL3 (in words) [1]: nanomolar inhibitory activity

Molecule: Cc1ccc(-n2cc(C(=O)c3ccccc3O)cn2)cc1 [CK-51]
IC50 [2]: > 50 µM
IC50 at 72 h [3]: 18.5 ± 9.4 µM
IC50 at 72 h [5]: 20.2 ± 15.4 µM
IC50 at 72 h [6]: 32.9 ± 14.2 µM
IC50 [7]: > 50 µM
inhibition at 100 µM [9]: 4.1 ± 3.7%
IC50 [11]: 30.1 ± 6.3 µM

Molecule: O=C(c1cnn(-c2ccccc2F)c1)c1ccccc1O [CK-43]
IC50 [2]: > 50 µM
IC50 at 72 h [3]: > 50 µM
IC50 at 72 h [5]: 46.2 ± 10.1 µM
IC50 at 72 h [6]: > 50 µM
IC50 [7]: > 50 µM
inhibition at 100 µM [9]: 24.4 ± 2.1%
IC50 [11]: > 50 µM

Molecule: COc1cccc(O)c1C(=O)c1cnn(-c2ccc(C(=O)O)cc2)c1 [CK-85]
IC50 [2]: 46.2 ± 2.6 µM
IC50 at 72 h [3]: > 50 µM
IC50 at 72 h [5]: > 50 µM
IC50 at 72 h [6]: > 50 µM
IC50 [7]: > 50 µM
inhibition at 100 µM [9]: 64.7 ± 8.4%
IC50 [11]: > 50 µM

Molecule: N#Cc1ccc(-n2cc(C(=O)c3ccccc3O)cn2)cc1 [CK-38]
IC50 [2]: > 50 µM
IC50 at 72 h [3]: > 50 µM
IC50 at 72 h [5]: 43.2 ± 11.2 µM
IC50 at 72 h [6]: > 50 µM
IC50 [7]: > 50 µM
inhibition at 100 µM [9]: 44.5 ± 7.1%
IC50 [11]: > 50 µM

More lines, main results first:

inhibition at 100 μM in AlphaScreen [4]: > 80%
inhibitory IC50 in AlphaScreen (in words) [4]: low double-digit micromolar
IC50 [7]: 41.6 ± 8.2 µM
concentration-dependent inhibition of YTHDF2–m6A RNA complex formation in EMSA (in words) [8]: dose-dependently inhibited
inhibition at 100 µM [9]: 41.1 ± 7.7%
ΔTm at 5 µM [10]: 0.47 ± 0.11 °C
ΔTm at 10 µM [10]: 1.35 ± 0.66 °C
ΔTm at 25 µM [10]: 2.27 ± 0.26 °C
IC50 [11]: 33.4 ± 3.3 µM
Molecule: O=C(O)c1ccc(-n2cc(C(=O)c3cc(Cl)ccc3O)cn2)cc1 [CK-67]
IC50 [2]: 38.5 ± 9.2 µM
IC50 at 72 h [3]: 48.5 ± 4.9 µM
IC50 at 72 h [5]: 34.9 ± 13.4 µM
IC50 at 72 h [6]: > 50 µM
inhibition of the YTHDF2–m6A RNA interaction in EMSA at 100 μM (in words) [8]: potent inhibition; also recorded: potently inhibited

inhibition at 100 μM in AlphaScreen [4]: > 80%
inhibitory IC50 in AlphaScreen (in words) [4]: low double-digit micromolar
IC50 [7]: > 50 µM
concentration-dependent inhibition of YTHDF2–m6A RNA complex formation in EMSA (in words) [8]: dose-dependently inhibited
inhibition at 100 µM [9]: 41.8 ± 3.2%
ΔTm at 5 µM [10]: 0.15 ± 0.14 °C
ΔTm at 10 µM [10]: 0.43 ± 0.11 °C
ΔTm at 25 µM [10]: 1.48 ± 0.52 °C
IC50 [11]: 31.2 ± 8.9 µM
Molecule: CC(C)c1ccc(O)c(C(=O)c2cnn(-c3ccc(C(=O)O)cc3)c2)c1 [CK-55]
IC50 [2]: > 50 µM
IC50 at 72 h [3]: 49.5 ± 8.5 µM
IC50 at 72 h [5]: 32.4 ± 22.1 µM
IC50 at 72 h [6]: 44.4 ± 13.5 µM
inhibition of the YTHDF2–m6A RNA interaction in EMSA at 100 μM (in words) [8]: potent inhibition; also recorded: potently inhibited

IC50 [7]: > 50 µM
concentration-dependent inhibition of YTHDF2–m6A RNA complex formation in EMSA (in words) [8]: dose-dependently inhibited
inhibition at 100 µM [9]: 34.4 ± 7.1%
ΔTm at 5 µM [10]: 0.3 ± 0.05 °C
ΔTm at 10 µM [10]: 0.5 ± 0.14 °C
ΔTm at 25 µM [10]: 0.48 ± 0.3 °C
IC50 [11]: > 50 µM
Molecule: O=C(O)c1ccc(-n2cc(C(=O)c3cc([N+](=O)[O-])ccc3O)cn2)cc1 [CK-62]
IC50 [2]: > 50 µM
IC50 at 72 h [3]: > 50 µM
IC50 at 72 h [5]: > 50 µM
IC50 at 72 h [6]: 42.6 ± 18.5 µM
inhibition of the YTHDF2–m6A RNA interaction in EMSA at 100 μM (in words) [8]: potent inhibition; also recorded: potently inhibited

IC50 [7]: > 50 µM
concentration-dependent inhibition of YTHDF2–m6A RNA complex formation in EMSA (in words) [8]: dose-dependently inhibited
inhibition at 100 µM [9]: 17.4 ± 10.5%
ΔTm at 5 µM [10]: 0.63 ± 0.08 °C
ΔTm at 10 µM [10]: 1.42 ± 0.36 °C
ΔTm at 25 µM [10]: 2.42 ± 0.24 °C
IC50 [11]: 45.5 ± 6.2 µM
Molecule: O=C(O)c1ccc(-n2cc(C(=O)c3ccc(Br)cc3O)cn2)cc1 [CK-70]
IC50 [2]: 48.5 ± 3.9 µM
IC50 at 72 h [3]: 36.4 ± 2.8 µM
IC50 at 72 h [5]: 42.1 ± 14.6 µM
IC50 at 72 h [6]: > 50 µM
inhibition of the YTHDF2–m6A RNA interaction in EMSA at 100 μM (in words) [8]: potent inhibition; also recorded: potently inhibited

IC50 [7]: > 50 µM
inhibition at 100 µM [9]: 5.2 ± 6.7%
IC50 [11]: > 50 µM
Molecule: O=C(O)c1ccc(-n2cc(C(=O)c3ccccc3O)cn2)cc1 [CK-24]
IC50 [2]: > 50 µM
IC50 at 72 h [3]: > 50 µM
IC50 at 72 h [5]: 43.2 ± 15.7 µM
IC50 at 72 h [6]: > 50 µM
